Consider two compounds from patent US20150132339A1, “ADJUVANTED FORMULATIONS OF STR[…]” (NOVARTIS AG, priority 2012, published 2015).

A value given as a limit tells only on which side of the number the result lay.

What all share (format): physicochemical
The nature of data set [1]: Adsorption of compound K2 to aluminium hydroxide adjuvant (Al—H). The note with it: Al—H 2 mg/ml. As for the experimental part:
(§1) To determine whether the K2 remains adsorbed to Al—H, compositions were prepared as above.

Data set [2] in a line: Degradation after formulation. The note with it: RrgB321 / K2 / Al—H formulation. As for the experimental part: (§2) The combination of RrgB321 used in this study corresponds to a fusion between RrgB sequences from (3) Taiwan-23F (2) Finland 6B-12 (1) TIGR4, and thus comprises pili of clades III, II and I. Details of RrgB321 are provided in references 235 and 236. RrgB321 was expressed with a His tag. The final RrgB321 vaccine composition contains antigen (0.4 mg/ml), compound K2 (2 mg/ml), Al—H (2 mg/ml), NaCl (9 mg/ml), histidine buffer (10 mM, pH 6.5), formulation volume: 0.05 ml (in water).
as §1

Data set [3] is described as follows: Adsorption of RrgB321 to Al—H (SDS-PAGE). As for the experimental part:
as §2, §1

For `Cc1cc(OCCOCCOCCP(=O)(O)O)ccc1CCc1cnc2c(N)nc3cc(CCC(=O)O)ccc3c2c1` [compound K2, 3-(5-amino-2-(2-methyl-4-(2-(2-(2-phosphonoethoxy)ethoxy)ethoxy)phenethyl)benzo[f]-[1,7]naphthyridin-8-yl)propanoic acid], in data set [1] (at all strengths), the “compound K2 adsorbed to the Al—H” value was over 95%. The “K2 remains adsorbed to Al—H” value in data set [1] (HPLC, RrgB321 composition) was “at least 97%”. Besides, the “degradation patterns after formulation” value in data set [2] is reported as “Neither antigen nor K2 showed detectable degradation patterns”.

“RrgB321: fusion between RrgB sequences from Taiwan-23F, Finland 6B-12 and TIGR4 (clades III, II, I), e.g. SEQ ID NO: 250, His tag”: the “RrgB321 adsorption to Al—H” value in data set [3] (in the absence of K2) is over 95%; in data set [3] (in the presence of K2) it was “approximately 50%”. Further, the “degradation patterns after formulation” value in data set [2] is recorded as “Neither antigen nor K2 showed detectable degradation patterns”.
